According to ChEMBL document CHEMBL1201862, “PubChem BioAssay data set” (2004):
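Cells were grown in 96-well plates and exposed to each compound for 48 hours at five concentrations; endpoints were interpolated linearly between bracketing concentrations, or set to the highest concentration if not reached. GI50 = concentration required for 50% inhibition of growth.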 The source made the active and inactive calls. Cut-off read from the data, not from the text of the source: active = GI50 up to about 1.1 µM and inactive = higher.

Legend:
Experiment in all cases: DTP human tumour cell line panel, 48 h
EKVX = test system: EKVX
SK-MEL-5 = test system: SK-MEL-5
SW-620 = test system: SW-620
SF-295 = test system: SF-295
IGROV-1 = test system: IGROV-1
U-251 = test system: U-251
SF-268 = test system: SF-268
PC-3 = test system: PC-3
A549 = test system: A549
UACC-62 = test system: UACC-62
RPMI-8226 = test system: RPMI-8226
OVCAR-5 = test system: OVCAR-5
SR = test system: SR
SN12C = test system: SN12C
HCT-15 = test system: HCT-15
OVCAR-3 = test system: OVCAR-3
HOP-62 = test system: HOP-62
M14 = test system: M14
UO-31 = test system: UO-31
T47D = test system: T47D
RXF 393 = test system: RXF 393
NCI-H522 = test system: NCI-H522
MDA-MB-231 = test system: MDA-MB-231
SF-539 = test system: SF-539
HL-60 = test system: HL-60
KM12 = test system: KM12
OVCAR-8 = test system: OVCAR-8
NCI/ADR-RES = test system: NCI/ADR-RES
COLO 205 = test system: COLO 205
MOLT-4 = test system: MOLT-4
SK-MEL-28 = test system: SK-MEL-28
HCT-116 = test system: HCT-116
Malme-3M = test system: Malme-3M
786-0 = test system: 786-0
A498 = test system: A498
HT-29 = test system: HT-29
MDA-MB-435 = test system: MDA-MB-435
NCI-H23 = test system: NCI-H23
MCF7 = test system: MCF7
Hs-578T = test system: Hs-578T
OVCAR-4 = test system: OVCAR-4
SNB-19 = test system: SNB-19
NCI-H460 = test system: NCI-H460
CAKI-1 = test system: CAKI-1
BT-549 = test system: BT-549
ACHN = test system: ACHN
TK-10 = test system: TK-10
SK-OV-3 = test system: SK-OV-3
DU-145 = test system: DU-145
LOX IMVI = test system: LOX IMVI
MDA-N = test system: MDA-N
NCI-H226 = test system: NCI-H226
UACC-257 = test system: UACC-257
HOP-92 = test system: HOP-92
SK-MEL-2 = test system: SK-MEL-2
K562 = test system: K562

Q: How did the GI50 (EKVX) turn out when `CN1CCc2nc(N)nc(-c3nc(N)nc4c3CN(C)CC4)c2C1` was run?
A: Its GI50 is > 100 µM (inactive).

Q: What about the GI50 (SK-MEL-5) of the same compound?
A: The GI50 was > 100 µM (inactive).

Q: And the GI50 (SW-620)?
A: Its GI50 is > 100 µM (inactive).

Q: What about the GI50 (SF-295) of the same compound?
A: The GI50 was > 100 µM (inactive).

Q: And the GI50 (IGROV-1)?
A: Its GI50 is > 100 µM (inactive).

Q: And the GI50 (U-251)?
A: The GI50 was > 100 µM (inactive).

Q: And the GI50 (SF-268)?
A: The GI50 was > 100 µM (inactive).

Q: And the GI50 (PC-3)?
A: Its GI50 is > 100 µM (inactive).

Q: What about the GI50 (A549) of the same compound?
A: The GI50 was > 100 µM (inactive).

Q: What about the GI50 (UACC-62) of the same compound?
A: The GI50 was > 100 µM (inactive).

Q: What about the GI50 (RPMI-8226) of the same compound?
A: The GI50 was > 100 µM (inactive).

Q: And the GI50 (OVCAR-5)?
A: The GI50 was > 100 µM (inactive).

Q: What about the GI50 (SR) of the same compound?
A: Its GI50 is 33 µM (inactive).

Q: And the GI50 (SN12C)?
A: Its GI50 is > 100 µM (inactive).

Q: And the GI50 (HCT-15)?
A: The GI50 was greater than 100 µM.

Q: And the GI50 (OVCAR-3)?
A: The GI50 was > 100 µM (inactive).

Q: And the GI50 (HOP-62)?
A: The GI50 was > 100 µM (inactive).

Q: What about the GI50 (M14) of the same compound?
A: Its GI50 is > 100 µM (inactive).

Q: What about the GI50 (UO-31) of the same compound?
A: The GI50 was > 100 µM (inactive).

Q: And the GI50 (T47D)?
A: Its GI50 is > 100 µM (inactive).

Q: What about the GI50 (RXF 393) of the same compound?
A: The GI50 was > 100 µM (inactive).

Q: What about the GI50 (NCI-H522) of the same compound?
A: The GI50 was > 100 µM (inactive).

Q: What about the GI50 (MDA-MB-231) of the same compound?
A: Its GI50 is > 100 µM (inactive).

Q: What about the GI50 (SF-539) of the same compound?
A: The GI50 was > 100 µM (inactive).

Q: And the GI50 (HL-60)?
A: Its GI50 is > 100 µM (inactive).

Q: And the GI50 (KM12)?
A: The GI50 was > 100 µM (inactive).

Q: What about the GI50 (OVCAR-8) of the same compound?
A: Its GI50 is > 100 µM (inactive).

Q: And the GI50 (NCI/ADR-RES)?
A: The GI50 was > 100 µM (inactive).

Q: And the GI50 (COLO 205)?
A: Its GI50 is > 100 µM (inactive).

Q: What about the GI50 (MOLT-4) of the same compound?
A: Its GI50 is > 100 µM (inactive).

Q: What about the GI50 (SK-MEL-28) of the same compound?
A: Its GI50 is > 100 µM (inactive).

Q: And the GI50 (HCT-116)?
A: The GI50 was > 100 µM (inactive).

Q: What about the GI50 (Malme-3M) of the same compound?
A: Its GI50 is > 100 µM (inactive).

Q: What about the GI50 (786-0) of the same compound?
A: Its GI50 is > 100 µM (inactive).

Q: What about the GI50 (A498) of the same compound?
A: The GI50 was > 100 µM (inactive).

Q: What about the GI50 (HT-29) of the same compound?
A: The GI50 was > 100 µM (inactive).

Q: What about the GI50 (MDA-MB-435) of the same compound?
A: Its GI50 is > 100 µM (inactive).

Q: And the GI50 (NCI-H23)?
A: Its GI50 is > 100 µM (inactive).

Q: And the GI50 (MCF7)?
A: The GI50 was > 100 µM (inactive).

Q: And the GI50 (Hs-578T)?
A: The GI50 was > 100 µM (inactive).

Q: And the GI50 (OVCAR-4)?
A: The GI50 was > 100 µM (inactive).

Q: What about the GI50 (SNB-19) of the same compound?
A: Its GI50 is > 100 µM (inactive).

Q: And the GI50 (NCI-H460)?
A: Its GI50 is > 100 µM (inactive).

Q: What about the GI50 (CAKI-1) of the same compound?
A: The GI50 was > 100 µM (inactive).

Q: What about the GI50 (BT-549) of the same compound?
A: The GI50 was > 100 µM (inactive).

Q: And the GI50 (ACHN)?
A: Its GI50 is > 100 µM (inactive).

Q: What about the GI50 (TK-10) of the same compound?
A: The GI50 was > 100 µM (inactive).

Q: What about the GI50 (SK-OV-3) of the same compound?
A: Its GI50 is > 100 µM (inactive).

Q: What about the GI50 (DU-145) of the same compound?
A: The GI50 was > 100 µM (inactive).

Q: And the GI50 (LOX IMVI)?
A: Its GI50 is > 100 µM (inactive).

Q: What about the GI50 (MDA-N) of the same compound?
A: The GI50 was > 100 µM (inactive).

Q: And the GI50 (NCI-H226)?
A: The GI50 was > 100 µM (inactive).

Q: What about the GI50 (UACC-257) of the same compound?
A: The GI50 was > 100 µM (inactive).

Q: And the GI50 (HOP-92)?
A: Its GI50 is > 100 µM (inactive).

Q: And the GI50 (SK-MEL-2)?
A: Its GI50 is > 100 µM (inactive).

Q: And the GI50 (K562)?
A: Its GI50 is 75.9 µM (inactive).
